Patent publication US5591714A, “Derivatives of A82846” (priority 1994, dated 1997)
≈ marks a conversion by molar mass, not a printed value. Like-named read-outs stand apart in the source and are kept apart here.

Experiments:
[1] = system: Escherichia coli EC14; assay: MIC, standard agar-dilution assay; assay type: cell-based
Description: (§1) The formula I compounds have in vitro and in vivo activity against Gram-positive pathogenic bacteria. The MIC's were determined using a standard agar-dilution assays.

[2] = system: Escherichia coli N10; assay: MIC, standard agar-dilution assay; assay type: cell-based
Description: as §1

[3] = system: Escherichia coli TEM; assay: MIC, standard agar-dilution assay; assay type: cell-based
Description: as §1

[4] = system: Haemophilus influenzae 76; assay: MIC, standard agar-dilution assay; assay type: cell-based
Description: as §1

[5] = system: Haemophilus influenzae C.L.; assay: MIC, standard agar-dilution assay; assay type: cell-based
Description: as §1

[6] = system: Klebsiella pneumoniae KAE; assay: MIC, standard agar-dilution assay; assay type: cell-based
Description: as §1

[7] = system: Klebsiella pneumoniae X26; assay: MIC, standard agar-dilution assay; assay type: cell-based
Description: as §1

[8] = system: Klebsiella pneumoniae X68; assay: MIC, standard agar-dilution assay; assay type: cell-based
Description: as §1

[9] = system: Staphylococcus aureus NRRL X1.1; assay: MIC, standard agar-dilution assay; assay type: cell-based
Description: as §1

[10] = system: Staphylococcus aureus V41; assay: MIC, standard agar-dilution assay; assay type: cell-based
Description: as §1

[11] = system: Staphylococcus aureus X400; assay: MIC, standard agar-dilution assay; assay type: cell-based
Description: as §1

[12] = system: Staphylococcus epidermidis 222; assay: MIC, standard agar-dilution assay; assay type: cell-based
Description: as §1

[13] = system: Staphylococcus epidermidis EPI270; assay: MIC, standard agar-dilution assay; assay type: cell-based
Description: as §1

[14] = system: Streptococcus pyogenes C203; assay: MIC, standard agar-dilution assay; assay type: cell-based
Description: as §1

[15] = system: Staphylococcus aureus S13E; assay type: cell-based
Description: as §1

[16] = system: Streptococcus pneumoniae Park 1; assay type: cell-based
Description: as §1

[17] = system: Enterococcus faecium X66; assay: MIC, standard agar-dilution assay; assay type: cell-based
Description: as §1
^b Formerly Streptococcus faecium X66

[18] = system: Enterococcus faecalis 2041; assay: MIC, standard agar-dilution assay; assay type: cell-based
Description: as §1
^c Formerly Streptococcus faecalis 2041

[19] = system: Staphylococcus aureus; assay: In vivo activity, experimentally infected mice (ED50); settings: Staphylococcus aureus infection; doses administered subcutaneously to mice 1 and 4 hours postinfection
[20] = system: Streptococcus pyogenes; assay: as above; settings: Streptococcus pyogenes infection; doses administered subcutaneously to mice 1 and 4 hours postinfection
[21] = system: Streptococcus pneumoniae; assay: as above; settings: Streptococcus pneumoniae infection; doses administered subcutaneously to mice 1 and 4 hours postinfection
[22] = system: vancomycin-resistant (Vanco^r) E. faecium and E. faecalis; assay: Susceptibility of vancomycin-resistant enterococci, agar-dilution MIC; assay type: cell-based; settings: for Geometric Mean MIC, Vanco^r Strains: n = 25 strains, end points read after 24-hour incubation
Description: (§2) End points were read after 24-hour incubation. The ratio was calculated by dividing the mean MIC of the compound against the vancomycin-resistant strains by the mean MIC of the compound against the vancomycin-susceptible strains.

[23] = system: vancomycin-susceptible (Vanco^s) E. faecium and E. faecalis; assay: Susceptibility of vancomycin-susceptible enterococci, agar-dilution MIC; assay type: cell-based; settings: n = 34 strains; end points read after 24-hour incubation
Description: as §2

[24] = system: six vancomycin-susceptible strains of staphylococci and enterococci; assay: Effect of human serum on the MIC, serial dilution assay; assay type: cell-based; settings: for MIC determined in absence of added serum: absence (-) of human serum; for MIC determined in presence of human serum: broth supplemented with human serum to 40%
From the text: Another important property of the formula I compounds is the low binding of the compounds to serum proteins when compared with other glycopeptide antibiotics. […] The ratio of the MIC measured in the presence of added serum to the MIC measured in the absence of added serum ("ratio") is an indication of the degree of serum binding. […] A ratio that is greater than one, for example about ten, indicates the compound has a high degree of serum binding.

[25] = indication of the degree of serum binding

SMILES	MIC [1] [µg/mL]	MIC [2] [µg/mL]	MIC [3] [µg/mL]	MIC [4] [µg/mL]	MIC [5] [µg/mL]	MIC [6] [µg/mL]	MIC [7] [µg/mL]	MIC [8] [µg/mL]	MIC [9]	MIC [10]	MIC [11]	MIC [12]	MIC [13]	MIC [14]	MIC [16]	Ratio (mean MIC vancomycin-resistant strains / mean MIC vancomycin-susceptible strains) [22]	Geometric Mean MIC, Vanco^r Strains [22] [µg/mL]	Geometric Mean MIC, Vanco^s Strains [23] [µg/mL]	MIC determined in absence of added serum [24]	MIC determined in presence of human serum [24]	further results
CCCCCCCCN[C@@]1(C)C[C@H](O[C@H]2[C@H](Oc3c4cc5cc3Oc3ccc(cc3Cl)[C@@H](O[C@H]3C[C@](C)(N)[C@@H](O)[C@H](C)O3)[C@@H]3NC(=O)[C@H](NC(=O)[C@@H]5NC(=O)[C@H](CC(N)=O)NC(=O)[C@H](NC(=O)[C@@H](CC(C)C)NC)[C@H](O)c5ccc(c(Cl)c5)O4)c4ccc(O)c(c4)-c4c(O)cc(O)cc4[C@@H](C(=O)O)NC3=O)O[C@H](CO)[C@@H](O)[C@@H]2O)O[C@@H](C)[C@@H]1O [Compound 38]	> 128	> 128	> 128	> 128	> 128	> 128	> 128	> 128	.5 µg/mL (≈ 0.293 µM)	1 µg/mL (≈ 0.587 µM)	1 µg/mL (≈ 0.587 µM)	.5 µg/mL (≈ 0.293 µM)	1 µg/mL (≈ 0.587 µM)	.06 µg/mL (≈ 0.0352 µM)	.25 µg/mL (≈ 0.147 µM)	2.9	2.1	0.73	0.75	0.43	MIC [15]: .5 µg/mL (≈ 0.293 µM); MIC [17]: .25 µg/mL (≈ 0.147 µM); MIC [18]: .25 µg/mL (≈ 0.147 µM); ED50 [19]: 0.43 mg/kg/2; ED50 [20]: 0.11 mg/kg/2; ED50 [21]: 0.062 mg/kg/2; ratio of the MIC in the presence of added serum to the MIC in the absence of added serum [24, 25]: 0.58
CCCCCCCCCCN[C@@]1(C)C[C@H](O[C@H]2[C@H](Oc3c4cc5cc3Oc3ccc(cc3Cl)[C@@H](O[C@H]3C[C@](C)(N)[C@@H](O)[C@H](C)O3)[C@@H]3NC(=O)[C@H](NC(=O)[C@@H]5NC(=O)[C@H](CC(N)=O)NC(=O)[C@H](NC(=O)[C@@H](CC(C)C)NC)[C@H](O)c5ccc(c(Cl)c5)O4)c4ccc(O)c(c4)-c4c(O)cc(O)cc4[C@@H](C(=O)O)NC3=O)O[C@H](CO)[C@@H](O)[C@@H]2O)O[C@@H](C)[C@@H]1O [Compound 42]	> 128	> 128	> 128	> 128	> 128	> 128	> 128	> 128	.5 µg/mL (≈ 0.289 µM)	.5 µg/mL (≈ 0.289 µM)	.5 µg/mL (≈ 0.289 µM)	.5 µg/mL (≈ 0.289 µM)	1 µg/mL (≈ 0.577 µM)	.25 µg/mL (≈ 0.144 µM)	.25 µg/mL (≈ 0.144 µM)	2.7	2.5	0.92	0.87	0.66	MIC [15]: 1 µg/mL (≈ 0.577 µM); MIC [17]: .06 µg/mL (≈ 0.0346 µM); MIC [18]: .5 µg/mL (≈ 0.289 µM); ED50 [19]: 0.67 mg/kg/2; ED50 [20]: 0.09 mg/kg/2; ED50 [21]: 0.09 mg/kg/2; ratio of the MIC in the presence of added serum to the MIC in the absence of added serum [24, 25]: 0.76
CNC(CC(C)C)C(=O)NC1C(=O)NC(CC(N)=O)C(=O)NC2C(=O)NC3C(=O)NC(C(=O)NC(C(=O)O)c4cc(O)cc(O)c4-c4cc3ccc4O)C(OC3CC(C)(N)C(O)C(C)O3)c3ccc(c(Cl)c3)Oc3cc2cc(c3OC2OC(CO)C(O)C(O)C2OC2CC(C)(NCc3ccc(Br)cc3)C(O)C(C)O2)Oc2ccc(cc2Cl)C1O (centres unmarked) [Compound 58]	> 128	> 128	> 128	> 128	> 128	> 128	> 128	> 128	.5 µg/mL (≈ 0.284 µM)	.5 µg/mL (≈ 0.284 µM)	1 µg/mL (≈ 0.568 µM)	.5 µg/mL (≈ 0.284 µM)	2 µg/mL (≈ 1.14 µM)	.125 µg/mL (≈ 0.071 µM)	.125 µg/mL (≈ 0.071 µM)	4.6	3.1	0.67	0.43	1.0	MIC [15]: 1 µg/mL (≈ 0.568 µM); MIC [17]: .25 µg/mL (≈ 0.142 µM); MIC [18]: .25 µg/mL (≈ 0.142 µM); ED50 [19]: 0.38 mg/kg/2; ED50 [20]: 0.05 mg/kg/2; ED50 [21]: 0.08 mg/kg/2; ratio of the MIC in the presence of added serum to the MIC in the absence of added serum [24, 25]: 2.3
CNC(CC(C)C)C(=O)NC1C(=O)NC(CC(N)=O)C(=O)NC2C(=O)NC3C(=O)NC(C(=O)NC(C(=O)O)c4cc(O)cc(O)c4-c4cc3ccc4O)C(OC3CC(C)(N)C(O)C(C)O3)c3ccc(c(Cl)c3)Oc3cc2cc(c3OC2OC(CO)C(O)C(O)C2OC2CC(C)(NCc3ccc(Cl)cc3)C(O)C(C)O2)Oc2ccc(cc2Cl)C1O (centres unmarked) [Compound 60]	> 128	> 128	> 128	> 128	> 128	> 128	> 128	> 128	.125 µg/mL (≈ 0.0728 µM)	.25 µg/mL (≈ 0.146 µM)	.5 µg/mL (≈ 0.291 µM)	.25 µg/mL (≈ 0.146 µM)	.5 µg/mL (≈ 0.291 µM)	.06 µg/mL (≈ 0.0349 µM)	.06 µg/mL (≈ 0.0349 µM)	5.5	3.6	0.65	0.76	1.5	MIC [17]: .25 µg/mL (≈ 0.146 µM); MIC [18]: .25 µg/mL (≈ 0.146 µM); ED50 [19]: 0.25 mg/kg/2; ED50 [20]: 0.06 mg/kg/2; ED50 [21]: 0.08 mg/kg/2; ratio of the MIC in the presence of added serum to the MIC in the absence of added serum [24, 25]: 2.0
CN[C@H](CC(C)C)C(=O)N[C@H]1C(=O)N[C@@H](CC(N)=O)C(=O)N[C@H]2C(=O)N[C@H]3C(=O)N[C@H](C(=O)N[C@H](C(=O)O)c4cc(O)cc(O)c4-c4cc3ccc4O)[C@H](O[C@H]3C[C@](C)(N)[C@@H](O)[C@H](C)O3)c3ccc(c(Cl)c3)Oc3cc2cc(c3O[C@@H]2O[C@H](CO)[C@@H](O)[C@H](O)[C@H]2O[C@H]2C[C@](C)(N)[C@@H](O)[C@H](C)O2)Oc2ccc(cc2Cl)[C@H]1O [Compound A82846B, A82846B, reference compound]	–	–	–	–	–	–	–	–	–	–	–	–	–	–	–	18.4	9.4	0.51	0.5	0.75	ratio of the MIC in the presence of added serum to the MIC in the absence of added serum [24]: 1.5
